According to patent publication US20250313642A1, “METHODS OF TREATING ACUTE AND CHRONIC GRAFT VERSUS HOST DISEASE” (Forte Subsidiary, Inc., priority 2022, published 2025):

What was measured:
[1] = test system: allogeneic model of chronic GvHD (BALB/c mice); assay: Allogeneic chronic GvHD mouse model (B10.D2 donor into BALB/c host), GvHD score; type: in vivo; details: Antibody 3 100 mpk IP Q.O.D., Ruxolitinib 60 mpk PO b.i.d.
From the text: An allogeneic model of chronic GvHD according to the animal model design of Ramos et al (Ramos T L et al. Delayed administration of ixazomib modifies the immune response and prevents chronic graft-versus-host disease. Bone Marrow Transplant. 2021 December;56(12):3049-3058) was investigated. In this model as shown in the study design of FIG. 6. B10.D2 mice serve as donor for bone marrow and splenocytes to be transplanted into irradiated BALB/c host mice. […] In this model of cGvHD, there is a low mortality rate extending past 150 days post-transplant and cGvHD symptoms can typically appear starting at approximately 30 days post-transplant. Study design includes treatment start at Day 30 post-transplant and end of study is marked at Day 60 post-transplant. […] Two test treatment groups included Group 2) Antibody 3 anti-CD122 antibody therapy (100 mpk delivered IP every other day (Q.O.D.), and Group 3) ruxolitinib monotherapy (60 mpk PO b.i.d). One negative control group (Group 1) including vehicle (IP Q.O.D.)+vehicle (PO b.i.d.) was also tested. Phenotypic cGvHD score and survival were assessed starting at Day 30 and ending at Day 60 post-transplant.
• BALB/c mice were randomized into treatment groups based on Day 1 bodyweight. • Female BALB/c mice were irradiated (5 Gy) and intravenously injected with B10.D2 donor cells on Day 1. • Cell injection volume was about 200 μL of Bone Marrow cells and splenocytes mixture as described below in treatments. Total cell volume injection=200 μL in PBS. • GvHD Scoring and body weight measurement assessed on Day 30, 33, 35, 37, 39, 41, 43, 45, 48, 51, 53, 56, 58, and 60. • Individual scores according to the grading system below of Grade 0, 1, or 2 were measured and documented on each assessed day for each criterion of body weight loss, activity, posture, fur texture, and skin integrity for each subject in each test group. Each criterion was then summed per subject to yield a total GvHD score by subject per assessed day (e.g., add score for bodyweight loss, activity, posture, fur texture, and skin integrity to yield total GvHD score). • Total GvHD scores per animal per day were then averaged per group to yield average GvHD score per test group and the standard error of the mean (SEM) for each group was determined.

[2] = test system: xenograft GvHD mouse model (NCG-hIL-15 mice transplanted with human PBMCs); assay: Xenograft acute GvHD mouse model, single vs combination therapy, survival; type: in vivo; details: Day 18; treatment D5-D18; ruxolitinib 60 mpk PO twice-daily; Antibody 1 75 mpk IP once-daily; n=10
Experimental: A xenograft GvHD mouse model was utilized to study human T and NK cell-mediated aGvHD and the therapeutic effects of anti-CD122 antibody treatment in single or combination therapy approaches. Female NCG-hIL-15 mice were irradiated at a dosage of 100 cGy on Day 1 of the protocol and human peripheral blood mononuclear cells (PBMCs) were transplanted via injection at a dosage of 1×10^7 cells/200 μL/mice via IV administration into the irradiated mice according to the same xenograft GvHD mouse model design as in Example 4.
Treatment according to 3 different grouping of animals was begun on Day 5 following transplant, as shown in the study design of FIG. 4. Groups of 10 mice were used for each test category. A single treatment group, Group #1, (n=10) received ruxolitinib (at a dosage of 60 mpk) twice-daily by oral administration (PO) beginning on Day 5 and ending on Day 18. Days of treatment were D5, D6, D7, D8, D9, D10, D11, D12, D13, D14, D15, D16, D17, and D18. A combination therapy group. Group #2. (n=10) received ruxolitinib (at a dosage of 60 mpk) twice-daily by oral administration beginning on Day 5 and ending on Day 18. […]
Day 18 was the end of study day for all treatment groups. Animals from all treatment groups were assessed daily beginning on Day 1 and ending on Day 18 for survival following transplant. […]

## N#CC[C@H](C1CCCC1)n1cc(-c2ncnc3[nH]ccc23)cn1 [ruxolitinib]
[1]; D 30 post-transplant
  Average total GvHD score (mean): 0.6
[1]; D 33 post-transplant
  Average total GvHD score (mean): 0.6
[1]; D 35 post-transplant
  Average total GvHD score (mean): 0.7
[1]; D 39 post-transplant
  Average total GvHD score (mean): 1.2
[1]; D 43 post-transplant
  Average total GvHD score (mean): 1.1
[1]; D 45 post-transplant
  Average total GvHD score (mean): 1.2
[1]; D 48 post-transplant
  Average total GvHD score (mean): 1.2
[1]; D 51 post-transplant
  Average total GvHD score (mean): 1.2
[1]; D 56 post-transplant
  Average total GvHD score (mean): 1.4
[1]; D 60 post-transplant
  Average total GvHD score (mean): 1.7
[2]
  survival rate at the end of the study: 30%
